Assay results from PubChem BioAssay (NCI).
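Where inhibition never reached the appropriate level, the endpoint shown equals the highest concentration tested. Otherwise, values were interpolated linearly from a five-concentration, 48-hour dose response in 96-well plates. At the GI50, growth is halved. TGI denotes the concentration required for complete inhibition of growth.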

Legend:
Assay in all cases: NCI tumour cell line growth inhibition, 48 h
HL-60(TB) leukemia = test system: HL-60(TB) leukemia
MDA-MB-435 = test system: MDA-MB-435
IGROV1 ovarian = test system: IGROV1 ovarian
TK-10 renal = test system: TK-10 renal
SN12C renal = test system: SN12C renal
M14 melanoma = test system: M14 melanoma
HT29 colon = test system: HT29 colon
EKVX NSCLC = test system: EKVX NSCLC
A498 renal = test system: A498 renal
SF-539 CNS = test system: SF-539 CNS
786-0 renal = test system: 786-0 renal
MOLT-4 leukemia = test system: MOLT-4 leukemia
HOP-92 NSCLC = test system: HOP-92 NSCLC
U251 CNS = test system: U251 CNS
COLO 205 colon = test system: COLO 205 colon
OVCAR-3 ovarian = test system: OVCAR-3 ovarian
CAKI-1 renal = test system: CAKI-1 renal
MCF7 breast = test system: MCF7 breast
NCI-H23 lung = test system: NCI-H23 lung
NCI/ADR-RES ovarian = test system: NCI/ADR-RES ovarian
OVCAR-4 ovarian = test system: OVCAR-4 ovarian
MDA-MB-231 breast = test system: MDA-MB-231 breast
RPMI-8226 leukemia = test system: RPMI-8226 leukemia
SNB-19 CNS = test system: SNB-19 CNS
T-47D breast = test system: T-47D breast
SF-268 CNS = test system: SF-268 CNS
HCT-116 colon = test system: HCT-116 colon
SW-620 colon = test system: SW-620 colon
OVCAR-5 ovarian = test system: OVCAR-5 ovarian

For `COc1cc2c3c(n(CCCN4CCCC4)c(=O)c2cc1OC)-c1cc2c(cc1C3=O)OCO2`, the GI50 (HL-60(TB) leukemia) was 677 nM, the TGI (HL-60(TB) leukemia) was 1890 nM and the GI50 (MDA-MB-435) was 1590 nM. It also gave a TGI (MDA-MB-435) of 3120 nM, a GI50 (IGROV1 ovarian) of 1420 nM and a TGI (IGROV1 ovarian) of 3090 nM. It also gave a GI50 (TK-10 renal) of 1930 nM, a TGI (TK-10 renal) of 3460 nM and a GI50 (SN12C renal) of 1650 nM. It also gave a TGI (SN12C renal) of 3380 nM, a GI50 (M14 melanoma) of 1500 nM and a TGI (M14 melanoma) of 3010 nM. The GI50 (HT29 colon) was 1320 nM, the TGI (HT29 colon) was 2760 nM and the GI50 (EKVX NSCLC) was 1950 nM. The TGI (EKVX NSCLC) was 3960 nM, the GI50 (A498 renal) was 5530 nM and the TGI (A498 renal) was 10800 nM. It also gave a GI50 (SF-539 CNS) of 1320 nM, a TGI (SF-539 CNS) of 2770 nM and a GI50 (786-0 renal) of 1320 nM. It also gave a TGI (786-0 renal) of 2900 nM, a GI50 (MOLT-4 leukemia) of under 17.9 nM and a TGI (MOLT-4 leukemia) of 1610 nM. It also gave a GI50 (HOP-92 NSCLC) of 1930 nM, a TGI (HOP-92 NSCLC) of 3940 nM and a GI50 (U251 CNS) of 1180 nM. It also gave a TGI (U251 CNS) of 2480 nM, a GI50 (COLO 205 colon) of 1110 nM and a TGI (COLO 205 colon) of 2550 nM. It also gave a GI50 (OVCAR-3 ovarian) of 1570 nM, a TGI (OVCAR-3 ovarian) of 2980 nM and a GI50 (CAKI-1 renal) of 1160 nM. It also gave a TGI (CAKI-1 renal) of 2450 nM, a GI50 (MCF7 breast) of 228 nM and a TGI (MCF7 breast) of 2210 nM. For the same compound, the GI50 (NCI-H23 lung) was 1630 nM, the TGI (NCI-H23 lung) was 3980 nM and the GI50 (NCI/ADR-RES ovarian) was 1350 nM. The TGI (NCI/ADR-RES ovarian) was 3680 nM, the GI50 (OVCAR-4 ovarian) was 1770 nM and the TGI (OVCAR-4 ovarian) was 3380 nM. It also gave a GI50 (MDA-MB-231 breast) of 1650 nM, a TGI (MDA-MB-231 breast) of 3310 nM and a GI50 (RPMI-8226 leukemia) of 1250 nM. The TGI (RPMI-8226 leukemia) was 4500 nM, the GI50 (SNB-19 CNS) was 1540 nM and the TGI (SNB-19 CNS) was 3720 nM. For the same compound, the GI50 (T-47D breast) was 4700 nM, the TGI (T-47D breast) was 11100 nM and the GI50 (SF-268 CNS) was 650 nM. The TGI (SF-268 CNS) was 2370 nM, the GI50 (HCT-116 colon) was 1140 nM and the TGI (HCT-116 colon) was 2690 nM. It also gave a GI50 (SW-620 colon) of 624 nM, a TGI (SW-620 colon) of 3450 nM and a GI50 (OVCAR-5 ovarian) of 1900 nM. For the same compound, the TGI (OVCAR-5 ovarian) was 3500 nM.
